US20110100079A1, “METHOD FOR IMPARTING STRESS TOLERANCE TO PLANT” (priority 2007, published 2011)

Columns and labels:
Format in all cases: in vivo
“Momotaro” tomato [1] = experiment: Example 4 salt stress tolerance imparting test (tomato, tap water + NaCl); details: tap water + NaCl 3510 ppm, 2 weeks
Text: NaCl concentration 3510 ppm (water potential by NaCl: […]) (4) Cultivation period: two weeks (5) Plant preparation: A 50-cell tray was filled with Kureha gardening soil manufactured by Kureha Corporation (fertilizer components: N:P:K=0.4:1.9:0.6 g/kg soil), and seeds of a “Momotaro” tomato were sowed, thinly covered with Kureha gardening soil, and sufficiently irrigated to allow the seeds to sprout. When the leaves in the 2-leaf stage fully unfolded, the soil on the tomato roots was carefully washed away with running water, and a test was performed. (6) The chemicals used and the concentration of a treatment solution were as in Example 1 (7) Amount of application: 10 ml/specimen for leaf spraying, 50 ml/specimen for fertigation Method of Salt Stress Tolerance Imparting Test […]

“Momotaro” tomato [2] = experiment: Example 2 temperature stress tolerance imparting test (tomato); details: 2 weeks
Method: Other cultivation conditions were the same as the conditions of the temperature stress test. […] (2) Solution culture medium: […] Method of Temperature Stress Tolerance Imparting Test The temperature in a climatic chamber was controlled so as to be 10, 15, or 32° C. The environmental conditions were controlled so as to have an illuminance by a fluorescent light of 5000 Lux and a daily light-dark cycle of a 16-hour light period and a 8-hour dark period. In this test, a temperature of 23° C. at which the optimum growth was observed was regarded as a reference temperature (temperature stress-free test condition), and a stress was imposed by applying a temperature higher or lower than the reference temperature. A tomato as prepared above was planted in a 250 ml polyethylene bottle filled with the solution culture medium (½ Otsuka A formulation). A treatment solution as presented in Table 1 was sprayed onto the leaves or applied to the underground portion. […] Ten specimens were prepared for each of the test plot and the control plots, and a plant stress level and an extent of imparting plant stress tolerance were calculated according to Formula (ii) and (iii) above using as a fresh plant body weight the average of the fresh plant body weights of each specimen 2 weeks after the beginning of the test.

“Momotaro” tomato [3] = experiment: Standard test: standard extent of imparting plant salt stress tolerance; details: 100 ppm sprayed onto leaves 10 ml/specimen, NaCl 3510 ppm in tap water, fresh weight after 2 weeks vs salt-stressed untreated control plot 1
Method: Standard Test (I) Plant Preparation A 50-cell tray is filled with potting soil (fertilizer components: N:P:K=0.4:1.9:0.6 (g)/kg potting soil); and seeds of a “Momotaro” tomato (Takii Co., Ltd.) are sowed, thinly covered with potting soil, and sufficiently irrigated to allow the seeds to sprout. When the leaves in the 2-leaf stage are fully unfolded, the soil on the tomato roots is washed away with running water, and a test is performed. For the potting soil, Kureha gardening soil manufactured by Kureha Corporation may be used. (II) Test Condition Setting The environmental conditions are controlled such that the temperature is 23° C., the relative humidity is 50%, the illuminance is 5000 Lux, and the daily light-dark cycle includes a 16-hour light period and an 8-hour dark period. Such environmental conditions can be obtained by, for example, controlling the temperature in a room or a climate chamber where the temperature and the relative humidity can be controlled, and controlling illuminance by a fluorescent light or the like. […] (III) Treatment with Plant Stress Tolerance Imparting Composition […] A known surfactant or a like material that barely affects the plant may be used in the preparation of an aqueous dispersion. Test plot: An aqueous solution or an aqueous dispersion of a test compound (sugar derivative-type surfactant) (concentration: 100 ppm) is sprayed onto the leaves in an amount of 10 ml per tomato specimen. […] NaCl is added to a solution culture medium (creating a salt stress), but no test compound (plant stress tolerance imparting composition) is given to the tomato. Control plot 2: No NaCl is added to a solution culture medium (creating no salt stress), and no test compound (plant stress tolerance imparting composition) is given to the tomato. (IV) Calculation of Standard Extent of Imparting Plant Salt Stress Tolerance (%) […] The plant stress level (standard plant salt stress level) attained in the above-described standard test is about 130%. In this regard, the standard plant salt stress level can be calculated according to Formula (ii)′ below.

[4] = tested on: Potato Variety: Toyoshiro; experiment: Example 5 drying stress tolerance imparting test (potato variety Toyoshiro); details: 3 weeks
Method: Other cultivation conditions were the same as the conditions of the drying stress test. Drying stress conditions: soil pF value: 2.3, 2.5, or 2.9, cultivation temperature: 23° C., relative humidity: 50%, illuminance: 5000 Lux (fluorescent light), light/dark cycle: 16 hours/8 hours (2) Cultivation Period: 3 weeks (3) Soil: Kureha gardening soil manufactured by Kureha Corporation (fertilizer components: N:P:K=0.4:1.9:0.6 g/kg soil) (4) The chemicals used and the amount of a treatment solution applied were the same as in Example 3. Method of Drying Stress Tolerance Imparting Test A planter (60 cm) was filled with Kureha gardening soil manufactured by Kureha Corporation (fertilizer components: N:P:K=0.4:1.9:0.6 g/kg soil) in a glass greenhouse, tubers of a “Thyoshiro” potato were cut in half: and 5 pieces thereof were planted in the planter, thinly covered with Kureha gardening soil, and sufficiently watered to allow the tubers to sprout. When the leaves in the 3-leaf stage fully unfolded, the Solarium tuberosu was relocated on a plant culture rack in an air-conditioned room, and a test was initiated. […] From immediately after the beginning of the test, a treatment solution of Table 1 was sprayed onto the leaves or applied to the underground portions once a week. […] Five specimens (per planter) were prepared for each of the test plot and the control plots, plant bodies were collected 3 weeks after the beginning of the test such that the roots were not cut, the soil was washed away with running water, the fresh plant body weights were measured, and a plant stress level and an extent of imparting plant stress tolerance were calculated according to Formula (ii) and (iii) above using the average of the weights.

[5] = pF 2.3, leaf, 100 ppm once a week
[6] = pF 2.5, leaf, 100 ppm once a week
[7] = pF 2.9, leaf, 100 ppm once a week
[8] = pF 2.3, leaf, 200 ppm once a week

Row | Compound | Extent of imparting plant stress tolerance (“Momotaro” tomato [1]; leaf, 100 ppm) [%] | Extent of imparting plant stress tolerance (“Momotaro” tomato [2]; 32° C., leaf, 100 ppm) [%] | Standard extent of imparting plant salt stress tolerance (“Momotaro” tomato [3]) [%] | Extent of imparting plant stress tolerance [4, 5] [%] | further results
1 | O=C(O)[C@@H]1CCCN1 [Comparative product 2, Proline, reference compound] | 103 | 102 | 102 | 102 | Extent of imparting plant stress tolerance (“Momotaro” tomato [2]; 10° C., leaf, 100 ppm): 102%; Extent of imparting plant stress tolerance (“Momotaro” tomato [2]; 15° C., leaf, 100 ppm): 102%; Extent of imparting plant stress tolerance [4, 6]: 103%; Extent of imparting plant stress tolerance [4, 7]: 103%
2 | C[N+](C)(C)CC(=O)[O-] [Comparative product 3, Glycine betaine, reference compound] | 103 | 102 | 103 | 102 | –
3 | OC[C@H]1O[C@H](OC[C@H]2O[C@H](O[C@]3(CO)O[C@H](CO)[C@@H](O)[C@@H]3O)[C@H](O)[C@@H](O)[C@@H]2O)[C@H](O)[C@@H](O)[C@H]1O [Comparative product 4, Raffinose, reference compound] | 102 | 103 | 102 | 103 | –
4 | Alkyl (C10) polyglycoside [Product of present invention 15] | 116 | 115 | 116 | 119 | Extent of imparting plant stress tolerance (“Momotaro” tomato [1]; leaf, 200 ppm): 113%; Extent of imparting plant stress tolerance (“Momotaro” tomato [2]; 32° C., leaf, 200 ppm): 115%; Extent of imparting plant stress tolerance [4, 8]: 116%
5 | Alkyl (C12-14) polyglycoside [Product of present invention 16] | 117 | 116 | 117 | 121 | –
6 | POE (6) sorbitan monooleic acid ester [Product of present invention 10] | 112 | 114 | 112 | 113 | –
7 | POE (20) sorbitan monolauric acid ester [Product of present invention 12] | 116 | 117 | 116 | 117 | Extent of imparting plant stress tolerance (“Momotaro” tomato [1]; leaf, 200 ppm): 117%; Extent of imparting plant stress tolerance (“Momotaro” tomato [2]; 32° C., leaf, 200 ppm): 121%; Extent of imparting plant stress tolerance [4, 8]: 120%
8 | POE (20) sorbitan monooleic acid ester [Product of present invention 1] | 113 | 114 | 113 | 113 | Extent of imparting plant stress tolerance (“Momotaro” tomato [1]; leaf, 1 ppm): 112%; Extent of imparting plant stress tolerance (“Momotaro” tomato [1]; leaf, 10 ppm): 113%; Extent of imparting plant stress tolerance (“Momotaro” tomato [1]; leaf, 1000 ppm): 119%; Extent of imparting plant stress tolerance (“Momotaro” tomato [1]; underground portion, 100 ppm): 130%; Extent of imparting plant stress tolerance (“Momotaro” tomato [2]; 10° C., leaf, 100 ppm): 125%; Extent of imparting plant stress tolerance (“Momotaro” tomato [2]; 10° C., underground portion, 100 ppm): 140%; Extent of imparting plant stress tolerance (“Momotaro” tomato [2]; 15° C., leaf, 100 ppm): 117%; Extent of imparting plant stress tolerance (“Momotaro” tomato [2]; 15° C., underground portion, 100 ppm): 130%; Extent of imparting plant stress tolerance (“Momotaro” tomato [2]; 32° C., leaf, 1 ppm): 113%; Extent of imparting plant stress tolerance (“Momotaro” tomato [2]; 32° C., leaf, 10 ppm): 113%; Extent of imparting plant stress tolerance (“Momotaro” tomato [2]; 32° C., leaf, 1000 ppm): 119%; Extent of imparting plant stress tolerance (“Momotaro” tomato [2]; 32° C., underground portion, 100 ppm): 127%; Extent of imparting plant stress tolerance ([4]; pF 2.3, leaf, 1 ppm once a week): 112%; Extent of imparting plant stress tolerance ([4]; pF 2.3, leaf, 10 ppm once a week): 113%; Extent of imparting plant stress tolerance ([4]; pF 2.3, leaf, 1000 ppm once a week): 119%; Extent of imparting plant stress tolerance ([4]; pF 2.3, underground portion, 100 ppm once a week): 134%; Extent of imparting plant stress tolerance [4, 6]: 115%; Extent of imparting plant stress tolerance ([4]; pF 2.5, underground portion, 100 ppm once a week): 127%; Extent of imparting plant stress tolerance [4, 7]: 124%; Extent of imparting plant stress tolerance ([4]; pF 2.9, underground portion, 100 ppm once a week): 134%
9 | POE (20) sorbitan monopalmitic acid ester [Product of present invention 13] | 116 | 116 | 116 | 118 | –
10 | POE (20) sorbitan monostearic acid ester [Product of present invention 14] | 114 | 118 | 114 | 115 | –
11 | Sorbitan monooleic acid ester [Product of present invention 11] | 112 | 113 | 112 | 113 | –
12 | Sucrose fatty acid ester (C16, HLB = 15) [Product of present invention 21] | 117 | 116 | 117 | 118 | –
13 | Sucrose fatty acid ester (C18, HLB = 9) [Product of present invention 18] | 113 | 113 | 113 | 115 | –
14 | Sucrose fatty acid ester (C18, HLB = 11) [Product of present invention 19] | 114 | 114 | 114 | 117 | –
